In one assay the test system is STAT3. Description: STAT3 reporter gene assay (luciferase), LNCaP stable cell line pSTAT3-TA-luc, IL-6 stimulation. It counts as cell-based, human. The settings on record: Homo sapiens. The method in brief:
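LNCaP cells stably carrying pSTAT3-TA-luc were plated 24 h in 3% DCC-FBS medium, then given compound followed by IL-6 (10 ng/mL final) for 24 h at 37 °C. Luciferase was read from lysates, with CellTiter-Glo viability on a duplicate plate. Stimulated 0.1% DMSO wells served as uninhibited control.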
On the technique in general: Reporter assays use an easily measured gene product as a stand-in for the process of interest.

The subject of assay [1] is DU-145 prostate cancer cell line. The assay can be described thus: Cell growth inhibition assay, DU-145 (CellTiter-Glo). Type of assay: cell-based. The settings on record: Homo sapiens; DU-145, 3,000 cells/well, 96 hours. The procedure, abridged: (§1)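 Cells seeded at 3,000 (DU-145), 5,000 (NCI-N87) or 10,000 (LNCaP, MDA-MB-468) per well, LNCaP in medium with 10 ng/mL IL-6. Serially diluted compound for 96 h at 37 °C (MDA-MB-468 in air, others 5% CO2); viability by CellTiter-Glo luminescence versus 0.1% DMSO wells.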
A general note: In ATP-based viability assays light output follows the ATP content of the culture.

Assay [2] concerns MDA-MB-468 breast cancer cell line. Description: Cell growth inhibition assay, MDA-MB-468 (CellTiter-Glo). It counts as cell-based. Conditions: Homo sapiens, MDA-MB-468, 96 hours. As to the method:
The inhibitory effects of the compounds of the present invention against the growth of cancer cells were evaluated as shown below. The cancer cell lines including prostate cancer cell lines (LNCaP, DU-145), stomach cancer cell line (NCI-N87), and breast cancer cell lines (MDA-MB-468) were cultured under the protocol provided by each supplier. A medium supplemented with 10 ng/mL of IL-6 was used for LNCaP, a prostate cancer cell line, when treated with a drug. Each type of cells to be used in experiments was sub-cultured in a 96-well plate by counting the exact number of cells using Tali™ Image-based Cytometer (Life Technologies). In a 96-well plate, DU-145 was employed with 3,000 cells/well; NCI-N87 was employed with 5,000 cells/well; and LNCaP and MDA-MB-468 were employed with 10,000 cells/well. The cells were treated with the compounds listed in Examples which were diluted in various concentrations. Upon completion of the compounds treatment, LNCaP, DU-145, NCI-N87 cells were cultured at 37° C. under 5% CO2 for 96 hours, and MDA-MB-468 cells were cultured at 37° C. in air for 96 hours. Subsequently, the cells were observed under microscope and drug precipitation and particular findings were investigated and recorded. And then, the 96-well plate was placed at room temperature for 30 minutes, added with 20 pt/well of CellTiter-Glo solution (Cat No. G7573, Promega) and shaken for 10 minutes, followed by being subjected to the measurement using PHERAstar™ microplate reader (BMG LABTECH) according to the supplier's general luminometer protocol. Wells where only culture liquid added without cell plating were used as a negative control, whereas wells where culture liquid containing 0.1% DMSO instead of the compounds listed in Examples were used as a positive control.

In a further assay the test system is STAT1. Description: STAT1 reporter gene assay (luciferase), U2OS stable cell line pGL4-STAT1-TA-luc, IFN-γ stimulation. It counts as cell-based, human. Conditions: Homo sapiens, IFN-γ 50 ng/mL, 8 hours, read-out: IC50 (μM) pSTAT1. The method in brief: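 U2OS cells stably carrying a STAT1-driven luciferase reporter were treated with serially diluted compounds plus IFN-γ (50 ng/mL final) for 8 h at 37 °C in 10% FBS medium. Luciferase read after lysis; parallel plate assessed for cytotoxicity by CellTiter-Glo.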

In assay [3] the test system is LNCaP prostate cancer cell line. The assay can be described thus: Cell growth inhibition assay, LNCaP (CellTiter-Glo). It counts as cell-based. Conditions: Homo sapiens; LNCaP, 10,000 cells/well, medium with 10 ng/mL IL-6, 96 hours. The method in brief: as §1
For assay [4], the system named is NCI-N87 stomach cancer cell line. The assay can be described thus: Cell growth inhibition assay, NCI-N87 (CellTiter-Glo). It counts as cell-based. The settings on record: Homo sapiens; NCI-N87, 5,000 cells/well, 96 hours. The method in brief: as §1

Some results are limits rather than exact numbers.

By IC50 is commonly meant the concentration that gives 50% inhibition.

As for `CC(C)(c1ccc2sc(C(=O)Nc3cc(Cl)nc(Oc4ccc(Cl)cc4)c3)cc2c1)S(C)(=O)=O` [Example 64, N-(2-chloro-6-(4-chlorophenoxy)pyridin-4-yl)-5-(2-(methylsulfonyl)propan-2-yl)benzo[b]thiophene-2-carboxamide], the 50% inhibitory concentration (IC50) with STAT3 is 0.021 µM; in assay [1] it was 0.0057 µM; in assay [2], 0.0065 µM; with STAT1 it was more than 50 µM; in assay [3], 0.013 µM; in assay [4], 0.034 µM.
For the compound `Cc1sccc1Oc1cc(NC(=O)c2cc3cc(C(C)(C)S(C)(=O)=O)ccc3s2)cc(Cl)n1` [Example 115, N-(2-chloro-6-((2-methylthiophen-3-yl)oxy)pyridin-4-yl)-5-(2-(methylsulfonyl)propan-2-yl)benzo[b]thiophene-2-carboxamide], the 50% inhibitory concentration (IC50) in the assay with STAT3 was 0.019 µM; in assay [2] it was 0.021 µM; in the assay on STAT1 it was more than 50 µM; in assay [4], 0.14 µM.
For `Cc1onc(Oc2cc(NC(=O)c3cc4cc(C(C)(C)S(C)(=O)=O)ccc4s3)cc(Cl)n2)c1C` [Example 116, N-(2-chloro-6-((4,5-dimethylisoxazol-3-yl)oxy)pyridin-4-yl)-5-(2-(methylsulfonyl)propan-2-yl)benzo[b]thiophene-2-carboxamide], in that order: 0.2 µM, 0.062 µM, more than 50 µM and 0.91 µM.
With `CC(C)(c1ccc2sc(C(=O)Nc3cc(Cl)nc(Oc4csc(C(F)(F)F)c4)c3)cc2c1)S(C)(=O)=O` [Example 117, N-(2-chloro-6-((5-(trifluoromethyl)thiophen-3-yl)oxy)pyridin-4-yl)-5-(2-(methylsulfonyl)propan-2-yl)benzo[b]thiophene-2-carboxamide], the IC50 in the assay on STAT3 was 0.028 µM; in assay [2], 0.0053 µM; with STAT1, more than 50 µM; in assay [4] it was 0.037 µM.
Regarding `Cc1csc(Oc2cc(NC(=O)c3cc4cc(C(C)(C)S(C)(=O)=O)ccc4s3)cc(Cl)n2)n1` [Example 119, N-(2-chloro-6-((4-methylthiazol-2-yl)oxy)pyridin-4-yl)-5-(2-(methylsulfonyl)propan-2-yl)benzo[b]thiophene-2-carboxamide], the IC50 was 2.8 µM in the assay on STAT3, more than 0.1 µM in assay [2], 12.8 µM with STAT1 and 7.8 µM in assay [4].
On the same counts, the results for `Cc1ccc(Oc2cc(NC(=O)c3cc4cc(C(C)(C)S(C)(=O)=O)ccc4s3)cc(Cl)n2)s1` [Example 120, N-(2-chloro-6-((5-methylthiophen-2-yl)oxy)pyridin-4-yl)-5-(2-(methylsulfonyl)propan-2-yl)benzo[b]thiophene-2-carboxamide] are 0.078 µM, 0.026 µM, 39.6 µM and 0.12 µM.
For `CC(C)(c1ccc2sc(C(=O)Nc3cc(Cl)nc(Oc4ccsc4Cl)c3)cc2c1)S(C)(=O)=O` [Example 121, N-(2-chloro-6-((2-chlorothiophen-3-yl)oxy)pyridin-4-yl)-5-(2-(methylsulfonyl)propan-2-yl)benzo[b]thiophene-2-carboxamide], in that order: 0.027 µM, 0.027 µM, more than 50 µM and 0.15 µM.

For the origin of these results see patent US10023591B2, “Heterocyclic derivatives and use thereof” (C&C RESEARCH LABORATORIES, priority 2014, dated 2018).
